Measurements from US20260091065A1, “VIABLE LYOPHILIZED COMPOSITIONS DERIVED FROM HUMAN TISSUES AND METHODS OF MAKING THE SAME” (OSIRIS THERAPEUTICS, INC., priority 2016, published 2026).

Legend:
[1] = tested on: epithelial cells in the amniotic membrane; assay: Uptake of FITC-trehalose by native cells in fresh amniotic membrane; assay type: cell-based, human; conditions: 2.5 mM FITC-trehalose in 0.5M trehalose, room temperature, 1 hour
Method: (§1) To further investigate the protective mechanism that leads to viable lyophilized placental membrane compositions, fresh amniotic and chorionic membranes were incubated in 2.5 mM FITC-trehalose in a 0.5M trehalose solution at room temperature for 1 hour and then thoroughly washed to remove excess trehalose. […] Longer incubation times with higher concentrations of trehalose at an elevated temperature could increase diffusion of trehalose into these cells and may promote enhanced cell survival following lyophilization.

[2] = tested on: stromal cells in the chorionic membrane; assay: Uptake of FITC-trehalose by native cells in fresh chorionic membrane; assay type: cell-based, human; conditions: 2.5 mM FITC-trehalose in 0.5M trehalose, room temperature, 1 hour
Method: as §1

[3] = tested on: chondrocytes embedded in bovine cartilage matrix; assay: Uptake of FITC-trehalose by chondrocytes embedded in bovine cartilage matrix; assay type: cell-based; conditions: intact bovine cartilage, 4 hours
Method: The same lyophilization methods effective for placental membrane and skin allograft compositions were used for cartilage graft compositions. First, intact pieces of bovine cartilage were incubated with FITC-trehalose for 4 hours and washed thoroughly to remove excess trehalose. […] Intact bovine cartilage, intact bovine cartilage with 1 mm pores, and micronized bovine cartilage were soaked in a trehalose solution for 4 hours at 37 C with agitation prior to lyophilization in the same trehalose solution.

[4] = tested on: chorionic stromal cells in suspension; assay: Uptake of FITC-trehalose by chorionic stromal cells in suspension; assay type: cell-based, human; conditions: 4 hours at room temperature
Method: Previous reports of lyophilization of cells in suspension have used trehalose as a lyoprotectant. To confirm that placental cells can uptake trehalose, cells were fully isolated from chorionic membranes and added to a well-plate. To the cell suspension, a commercially available fluorescently tagged trehalose, FITC-trehalose, was added and allowed to incubate for 4 hours at room temperature. Cells were washed multiple times to remove any remaining free FITC-trehalose.

FITC-trehalose
uptake of trehalose [1]: readily uptake trehalose
uptake of trehalose [2]: readily uptake trehalose
uptake of trehalose [3]: some trehalose can be taken up by chondrocytes
uptake of trehalose [4]: uptake trehalose at low levels
